The nature of the data set: Time-course of drug levels in adult and embryonic mouse plasma, brain and liver after a single subcutaneous injection (LC-MS/MS). Conditions: mouse, 10 mg/kg.
Setting [1] is: female, brain (adult), subcutaneous.
Where [2] appears, read: female, liver (adult), subcutaneous.

For the compound `O=C1CC[C@@]2(O)[C@H]3Cc4ccc(O)c5c4[C@@]2(CCN3CC2CC2)[C@H]1O5` [Naltrexone, naltrexone, reference compound], the concentration at 20 min reads like this: under setting [1], 3230 ng/g; (female, in vivo) 1880 ng/g; under setting [2], 2100 ng/g. Also, the concentration at 45 min under setting [1] stood at 1470 ng/g; the concentration at 45 min (female, in vivo) is 620 ng/g; the concentration at 45 min under setting [2] is 1390 ng/g; the concentration at 45 min (embryo brain, subcutaneous) is 2610 ng/g; the concentration at 45 min (embryo liver, subcutaneous) was 3190 ng/g. In addition, the concentration at 2 h runs as follows: under setting [1], 250 ng/g; (female, in vivo) 130 ng/g; under setting [2], 360 ng/g; (embryo brain, subcutaneous) 500 ng/g; (embryo liver, subcutaneous) 620 ng/g. Also, the concentration at 4 h by setting is: under setting [1], 18 ng/g; (female, in vivo) 4 ng/g; under setting [2], 32 ng/g.

Values taken from patent US12161641B2, “Treatments and prevention of opioid neonatal abstinence syndrome” (Ohio State Innovation Foundation, priority 2016, dated 2024).
